This note sets out measurements from patent US10125098B2, “Therapeutic compounds and methods of use thereof” (GENENTECH, INC., priority 2014, dated 2018).

One data set addresses T1, human NaV1.7 (Homo sapiens, UniProt Q15858).
T1 construct: permanently transfected with an expression vector containing the full-length cDNA coding for the desired human sodium channel α-subunit; expressed in transfected cells; host or cells: HEK-293
As to the kind of experiment: Patch voltage clamp electrophysiology assay (EP), NaV1.7. The conditions noted are these: HEK-293 cells stably expressing NaV1.7 with β1 subunit; whole-cell patch clamp, membrane potential −60 mV (inactivated state). Format: cell-based. The method, then: (§1) The following patch voltage clamp electrophysiology studies were performed on representative compounds of the invention using human embryonic kidney cells (HEK), permanently transfected with an expression vector containing the full-length cDNA coding for the desired human sodium channel α-subunit, grown in culture media containing 10% FBS, 1% PSG, and 0.5 mg/mL G418 at 37° C. with 5% CO2. […] NaV1.7 and NaV1.5 cDNAs (NM_002977 and AC137587; SCN5A, respectively) were stably expressed in HEK-293 cells. The β1 subunit was coexpressed in both the NaV1.7 and NaV1.5 cell lines.
(§2) Sodium currents were measured using the patch clamp technique in the whole-cell configuration using either a PatchXpress automated voltage clamp or manually using an Axopatch 200B (Axon Instruments) or Model 2400 (A-M systems) amplifier. The manual voltage clamp protocol was as follows: Borosilicate glass micropipettes were fire-polished to a tip diameter yielding a resistance of 2-4 Mohms in the working solutions. The pipette was filled with a solution comprised of: 5 mM NaCl, 10 mM CsCl, 120 mM CsF, 0.1 mM CaCl2, 2 mM MgCl2, 10 mM HEPES, 10 mM EGTA; and adjusted to pH 7.2 with CsOH. The external solution had the following composition: 140 mM NaCl, 5 mM KCl, 2 mM CaCl2, 1 mM MgCl2, 10 mM HEPES; and adjusted to pH 7.4 with NaOH. In some studies, the external sodium was reduced by equimolar replacement with choline. Osmolarity in the CsF internal and NaCl external solutions was adjusted to 300 mOsm/kg and 310 mOsm/kg with glucose, respectively. All recordings were performed at ambient temperature in a bath chamber with a volume of 150 μL. Control sodium currents were measured in 0.5% DMSO. Controls and representative compounds of the invention were applied to the recording chamber through a 4-pinch or 8-pinch valve bath perfusion system manufactured by ALA Scientific Instruments.
(§3) Series resistance compensation was applied (60-80%). […] All statistics in this study are given as mean±SD.
(§4) The membrane potential was maintained at a voltage where inactivation of the channel is complete (which was −60 mV for both NaV1.7 and NaV1.5). The voltage is then stepped back to a very negative (Vhold=[…]) voltage for 20 ms and then a test pulse is applied to quantify the compound block. […] The percent decrease in sodium current following wash-on of compound was taken as the percent block of sodium channels.
(Patch clamp records ionic current or voltage across a cell membrane.)

For another data set, the target named is T2, hNav1.7 (Homo sapiens, UniProt Q15858).
T2 construct: expressed in transfected cells
As to the kind of experiment: Tritiated compound binding (LBA) to membranes from cells expressing hNav1.7 and the β1 subunit, competitive binding. As to conditions: competitive binding vs 100 pM [3H]compound, 18 h, room temperature, membranes with hNav1.7 and β1 subunit. As to the method: Tritiated Compound Binding to Membranes
Isolated from Cells that Heterologously Express hNav1.7 and the β1 Subunit
Preparation of membranes containing recombinantly expressed sodium channels: Frozen recombinant cell pellets were thawed on ice and diluted to 4 times the cell pellet weight with ice cold 50 mM Tris HCl, pH 7.4 buffer. The cell suspensions were homogenized on ice using a motorized glass dounce homogeniser. […] The supernatants were collected and centrifuged at 10000×g at 4° C. for 50 min. The pellets were then re-suspended in 100 mM NaCl, 20 mM Tris HCl, pH 7.4 buffer containing 1% v/v protease inhibitors (Calbiochem) and re-homogenized on ice. The homogenized membranes were then processed through a syringe equipped with a 26 gauge needle. Protein concentrations were determined by Bradford Assay and the membranes were stored at −80° C.
Saturation experiments. A representative compound of formula (I) having a methyl group was tritiated. Three tritiums were incorporated in place of methyl hydrogens to generate [^3H]compound. Binding of this radioligand was performed in 5 mL borosilicate glass test tubes at room temperature. Binding was initiated by adding membranes to increasing concentrations of [^3H]compound in 100 mM NaCl, 20 mM Tris HCl, pH 7.4 buffer containing 0.01% w/v bovine serum albumin (BSA) for 18 h. Non-specific binding was determined in the presence of 1 μM unlabeled compound. After 18 h, the reactants were filtered through GF/C glass fiber filters presoaked in 0.5% w/v polyethylene imine. […] [^3H]compound bound to filters was quantified by liquid scintillation counting.
Binding reactions were performed in 96-well polypropylene plates at room temperature for 18 h. In 360 μL, membranes were incubated with 100 pM [^3H]compound and increasing concentrations of Test Compound. Non-specific binding was defined in the presence of 1 μM unlabeled compound. Reactions were transferred and filtered through 96-well glass fiber/C filter plates presoaked with 0.5% polyethylene imine. […] Bound radioactivity was determined by liquid scintillation counting.
Data Analysis: For saturation experiments, non-specific binding was subtracted from total binding to provide specific binding and these values were recalculated in terms of pmol ligand bound per mg protein. Saturation curves were constructed and dissociation constants were calculated using the single site ligand binding model: Beq=(Bmax*X)/(X+Kd), where Beq is the amount of ligand bound at equilibrium, Bmax is the maximum receptor density, Kd is the dissociation constant for the ligand, and X is the free ligand concentration. For competition studies percent inhibition was determined and IC50 values were calculated using a 4 parameter logistic model (% inhibition=(A+((B−A)/(1+((x/C)^D)))) using XLfit, where A and B are the maximal and minimum inhibition respectively, C is the IC50 concentration and D is the (Hill) slope.

The target of a further data set is T3, NaV1.5 (Homo sapiens, UniProt Q14524).
T3 construct: permanently transfected with an expression vector containing the full-length cDNA coding for the desired human sodium channel α-subunit; expressed in transfected cells; host or cells: HEK-293
As to the kind of experiment: Patch voltage clamp electrophysiology assay (EP), NaV1.5. Format: cell-based. As to conditions: HEK-293 cells stably expressing NaV1.5 with β1 subunit, whole-cell patch clamp, membrane potential −60 mV (inactivated state). The method, then: as §1, §2, §3, §4

The mark [1] stands for this setting: human, HEK-293 cells stably expressing human NaV1.5 with β1 subunit, pH 7.4.

Counter-ions that a name gives are not always drawn. Like-named read-outs stand apart in the source and are kept apart here.

T3 sequence (Q14524 whole entry): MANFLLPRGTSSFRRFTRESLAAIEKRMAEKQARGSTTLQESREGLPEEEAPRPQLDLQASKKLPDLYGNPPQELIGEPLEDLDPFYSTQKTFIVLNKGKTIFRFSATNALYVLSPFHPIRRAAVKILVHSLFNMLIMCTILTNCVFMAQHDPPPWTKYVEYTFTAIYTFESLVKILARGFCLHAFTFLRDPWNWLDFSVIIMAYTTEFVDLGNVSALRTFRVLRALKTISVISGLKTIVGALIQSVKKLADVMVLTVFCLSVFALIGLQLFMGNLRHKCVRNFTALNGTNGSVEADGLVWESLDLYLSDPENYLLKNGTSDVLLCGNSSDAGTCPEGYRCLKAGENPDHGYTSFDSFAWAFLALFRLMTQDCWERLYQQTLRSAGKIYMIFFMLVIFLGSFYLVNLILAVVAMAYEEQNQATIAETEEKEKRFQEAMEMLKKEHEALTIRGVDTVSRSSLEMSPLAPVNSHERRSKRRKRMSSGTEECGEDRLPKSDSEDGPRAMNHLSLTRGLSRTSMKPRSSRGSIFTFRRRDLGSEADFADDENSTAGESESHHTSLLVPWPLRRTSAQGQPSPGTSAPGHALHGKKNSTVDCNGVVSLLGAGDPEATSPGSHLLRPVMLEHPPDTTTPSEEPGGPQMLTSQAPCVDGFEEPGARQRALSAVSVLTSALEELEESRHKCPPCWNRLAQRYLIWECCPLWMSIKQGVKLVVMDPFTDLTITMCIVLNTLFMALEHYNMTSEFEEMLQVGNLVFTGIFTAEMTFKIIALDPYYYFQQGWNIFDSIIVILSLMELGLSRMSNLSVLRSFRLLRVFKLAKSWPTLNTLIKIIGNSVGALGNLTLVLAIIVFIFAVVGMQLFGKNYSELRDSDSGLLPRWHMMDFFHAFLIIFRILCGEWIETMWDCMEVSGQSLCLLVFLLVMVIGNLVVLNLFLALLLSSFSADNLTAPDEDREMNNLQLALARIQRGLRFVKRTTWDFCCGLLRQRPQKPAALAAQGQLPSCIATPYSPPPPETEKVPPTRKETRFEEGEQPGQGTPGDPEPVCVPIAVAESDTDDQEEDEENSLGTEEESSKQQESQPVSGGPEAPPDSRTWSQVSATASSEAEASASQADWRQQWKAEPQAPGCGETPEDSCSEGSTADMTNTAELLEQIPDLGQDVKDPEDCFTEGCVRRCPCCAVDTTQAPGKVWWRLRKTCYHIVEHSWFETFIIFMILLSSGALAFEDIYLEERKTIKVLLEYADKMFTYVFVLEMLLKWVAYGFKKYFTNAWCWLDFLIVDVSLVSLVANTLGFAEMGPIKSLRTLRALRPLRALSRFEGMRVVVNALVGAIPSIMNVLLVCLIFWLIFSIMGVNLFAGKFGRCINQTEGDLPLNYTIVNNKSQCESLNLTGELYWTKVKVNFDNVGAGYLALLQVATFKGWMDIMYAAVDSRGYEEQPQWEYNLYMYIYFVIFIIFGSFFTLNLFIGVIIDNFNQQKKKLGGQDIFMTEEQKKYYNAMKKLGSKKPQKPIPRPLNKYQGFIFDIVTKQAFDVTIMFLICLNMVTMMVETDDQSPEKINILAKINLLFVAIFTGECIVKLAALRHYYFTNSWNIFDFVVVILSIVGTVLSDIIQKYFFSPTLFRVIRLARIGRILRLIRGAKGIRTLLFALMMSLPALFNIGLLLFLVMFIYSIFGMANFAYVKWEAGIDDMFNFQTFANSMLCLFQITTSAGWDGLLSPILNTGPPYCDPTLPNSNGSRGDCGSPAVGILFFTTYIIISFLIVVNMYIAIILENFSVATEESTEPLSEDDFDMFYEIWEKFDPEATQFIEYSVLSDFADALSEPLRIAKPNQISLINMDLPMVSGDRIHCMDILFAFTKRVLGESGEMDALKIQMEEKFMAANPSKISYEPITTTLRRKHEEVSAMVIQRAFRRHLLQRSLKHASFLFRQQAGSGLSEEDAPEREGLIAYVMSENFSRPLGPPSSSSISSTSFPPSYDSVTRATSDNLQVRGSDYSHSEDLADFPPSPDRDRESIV
T1 sequence (Q15858 1-1977 isoform Q15858-3): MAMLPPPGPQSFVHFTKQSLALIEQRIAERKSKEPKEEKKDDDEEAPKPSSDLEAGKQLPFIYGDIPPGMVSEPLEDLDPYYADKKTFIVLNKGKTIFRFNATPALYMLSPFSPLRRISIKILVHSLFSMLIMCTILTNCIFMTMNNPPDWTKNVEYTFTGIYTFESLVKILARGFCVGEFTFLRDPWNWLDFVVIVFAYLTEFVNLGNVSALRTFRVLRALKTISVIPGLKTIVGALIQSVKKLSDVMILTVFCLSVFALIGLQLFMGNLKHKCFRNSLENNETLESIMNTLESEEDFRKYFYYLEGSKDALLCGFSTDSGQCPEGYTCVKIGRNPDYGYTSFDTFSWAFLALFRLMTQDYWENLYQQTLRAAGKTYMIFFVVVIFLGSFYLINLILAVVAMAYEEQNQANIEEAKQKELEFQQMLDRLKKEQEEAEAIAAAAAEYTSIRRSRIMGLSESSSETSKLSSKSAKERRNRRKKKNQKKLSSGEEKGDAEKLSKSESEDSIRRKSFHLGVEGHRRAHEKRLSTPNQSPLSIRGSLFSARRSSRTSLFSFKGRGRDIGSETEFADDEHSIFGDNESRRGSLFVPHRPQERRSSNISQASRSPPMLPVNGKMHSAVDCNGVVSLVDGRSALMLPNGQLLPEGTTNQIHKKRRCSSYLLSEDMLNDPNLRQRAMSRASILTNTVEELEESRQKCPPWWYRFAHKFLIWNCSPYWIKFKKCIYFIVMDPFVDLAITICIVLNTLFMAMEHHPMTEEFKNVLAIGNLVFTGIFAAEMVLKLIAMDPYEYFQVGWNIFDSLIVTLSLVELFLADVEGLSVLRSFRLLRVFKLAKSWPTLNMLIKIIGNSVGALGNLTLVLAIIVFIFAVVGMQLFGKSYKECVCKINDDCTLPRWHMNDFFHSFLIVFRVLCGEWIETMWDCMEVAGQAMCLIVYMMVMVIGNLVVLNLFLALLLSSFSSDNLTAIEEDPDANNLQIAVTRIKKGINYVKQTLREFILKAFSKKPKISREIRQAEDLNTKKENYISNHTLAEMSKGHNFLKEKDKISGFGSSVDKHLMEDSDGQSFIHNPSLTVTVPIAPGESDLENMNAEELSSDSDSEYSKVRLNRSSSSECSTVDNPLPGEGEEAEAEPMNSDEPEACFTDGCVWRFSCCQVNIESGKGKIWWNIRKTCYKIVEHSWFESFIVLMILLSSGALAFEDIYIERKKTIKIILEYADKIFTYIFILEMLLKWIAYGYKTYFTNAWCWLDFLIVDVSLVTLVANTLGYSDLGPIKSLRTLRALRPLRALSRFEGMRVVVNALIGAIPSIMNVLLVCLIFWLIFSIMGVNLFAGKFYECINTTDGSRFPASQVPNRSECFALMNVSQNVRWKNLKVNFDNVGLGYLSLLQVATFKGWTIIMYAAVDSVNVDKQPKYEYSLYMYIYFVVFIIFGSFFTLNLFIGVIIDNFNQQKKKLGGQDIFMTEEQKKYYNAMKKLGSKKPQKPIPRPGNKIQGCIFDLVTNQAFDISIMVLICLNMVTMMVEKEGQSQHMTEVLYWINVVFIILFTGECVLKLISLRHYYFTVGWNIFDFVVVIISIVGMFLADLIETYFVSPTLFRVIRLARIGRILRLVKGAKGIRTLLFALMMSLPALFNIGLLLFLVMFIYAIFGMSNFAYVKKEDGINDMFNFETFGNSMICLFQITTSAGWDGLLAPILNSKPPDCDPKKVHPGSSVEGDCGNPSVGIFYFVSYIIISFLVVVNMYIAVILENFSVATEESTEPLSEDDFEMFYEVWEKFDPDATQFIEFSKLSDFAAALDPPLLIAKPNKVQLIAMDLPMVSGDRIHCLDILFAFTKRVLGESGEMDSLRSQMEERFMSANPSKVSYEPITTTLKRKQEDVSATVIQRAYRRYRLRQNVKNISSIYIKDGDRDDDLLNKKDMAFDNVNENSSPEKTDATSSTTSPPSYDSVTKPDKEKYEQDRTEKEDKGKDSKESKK
T1 sequence (Q07699 19-218 partner): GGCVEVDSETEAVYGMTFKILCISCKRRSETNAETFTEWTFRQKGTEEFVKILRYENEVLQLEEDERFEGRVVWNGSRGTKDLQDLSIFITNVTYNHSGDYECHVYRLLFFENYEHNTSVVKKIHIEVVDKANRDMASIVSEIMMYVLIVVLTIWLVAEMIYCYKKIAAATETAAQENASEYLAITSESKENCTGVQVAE
T2 sequence (Q15858 1-1977 isoform Q15858-3): as the sequence (Q15858 1-1977 isoform Q15858-3) above
T2 sequence (Q07699 19-218 partner): as the sequence (Q07699 19-218 partner) above

Consider `O=C(O)[C@@H]1[C@@H]2C[C@@H]2CN1C(=O)c1cc(C2CC2)c(OCC23CC4CC(CC(C4)C2)C3)cc1F` (racemic) [Example 61, racemate-(1R, 3S, 5R)-2-(4-((adamantan-1-yl)methoxy)-5-cyclopropyl-2-fluorobenzoyl)-2-azabicyclo[3.1.0]hexane-3-carboxylic acid], for which the IC50 on human NaV1.7 stood at 2.7 µM; on hNav1.7, 0.97 µM; at NaV1.5 (read-out: Nav1.5), 12 µM.

For `C[C@H](c1cc(Cl)cc(Cl)c1)N1CCC[C@H](COc2cc(F)c(C(=O)N3CCC[C@H]3C(=O)O)cc2C2CC2)C1` (single isomer, unassigned) [Example 73a], the IC50 came to 2.2 µM against human NaV1.7, 0.36 µM at hNav1.7 and 12 µM on NaV1.5 (read-out: Nav1.5).

On to `C[C@@H](c1cc(Cl)cc(Cl)c1)N1CCC[C@H](COc2cc(F)c(C(=O)N3CCC[C@H]3C(=O)O)cc2C2CC2)C1` (single isomer, unassigned) [Example 73b], for which the IC50 is 1.5 µM at human NaV1.7, 0.093 µM on hNav1.7 and 22 µM at NaV1.5 (read-out: Nav1.5).

With `C[C@@H](c1cc(Cl)cc(Cl)c1)N1CCC(COc2cc(F)c(C(=O)N3CCC[C@H]3C(=O)O)cc2C2CC2)CC1` (single isomer, unassigned) [Example 79a], the IC50 against human NaV1.7 was 0.69 µM; on hNav1.7 it was 0.047 µM; against NaV1.5 (setting [1]), at least 30 µM.

Regarding `CC(c1cc(Cl)cc(Cl)c1)N1CCC(COc2cc(F)c(C(=O)N3CCC[C@H]3C(=O)O)cc2C2CC2)CC1` (single isomer, unassigned) [Example 79b], the IC50 against human NaV1.7 is 0.79 µM; on hNav1.7, 0.073 µM; at NaV1.5 (setting [1]), at least 30 µM.

Consider `O=C(O)[C@@H]1CCCN1C(=O)c1cc(C2CC2)c(OC2C3CC4CC2CC(Cl)(C4)C3)cc1F` (single isomer, unassigned) [Example 80], for which the IC50 was 1.5 µM against human NaV1.7, 0.59 µM on hNav1.7 and at least 30 µM against NaV1.5 (setting [1]).

Consider `O=C(O)[C@@H]1CCCN1C(=O)c1cc(Cl)c(OC2C3CC4CC2CC(Cl)(C4)C3)cc1F` (single isomer, unassigned) [Example 81], for which the values for the IC50 against human NaV1.7, at hNav1.7 and at NaV1.5 (setting [1]) were 16 µM, 8.9 µM and at least 30 µM, respectively.

As for `O=C(O)[C@@H]1CCCN1C(=O)c1cc(C2CC2)c(OC2C3CC4CC2CC(Cl)(C4)C3)cc1F` (single isomer, unassigned) [Example 82], the IC50 on human NaV1.7 was determined as 1.8 µM; on hNav1.7, 1.1 µM.

With `CN(CC(=O)O)C(=O)c1cc(C2CC2)c(OCC23CC4CC(CC(C4)C2)C3)cc1F` [Example 45, 2-(4-(adamantan-1-ylmethoxy)-5-cyclopropyl-2-fluoro-N-methylbenzamido)acetic acid], the IC50 was 11.7 µM at human NaV1.7 and 8.4 µM on hNav1.7.

Regarding `O=C(O)[C@@H]1C[C@H](O)CN1C(=O)c1cc(C2CC2)c(OCC23CC4CC(CC(C4)C2)C3)cc1F` [Example 46, (2S,4S)-1-[4-(1-adamantylmethoxy)-5-cyclopropyl-2-fluoro-benzoyl]-4-hydroxy-pyrrolidine-2-carboxylic acid], the values for the IC50 at human NaV1.7 and at hNav1.7 were 0.87 µM and 0.15 µM, respectively.

On to `O=C(O)[C@H]1C[C@@H](O)CN1C(=O)c1cc(C2CC2)c(OCC23CC4CC(CC(C4)C2)C3)cc1F` [Example 47, (2R,4R)-1-[4-(1-adamantylmethoxy)-5-cyclopropyl-2-fluoro-benzoyl]-4-hydroxy-pyrrolidine-2-carboxylic acid], for which the figures for the IC50 on human NaV1.7 and at hNav1.7 were 16 µM and at least 10 µM, respectively.

For `O=C(O)[C@@H]1CC(F)(F)CN1C(=O)c1cc(C2CC2)c(OCC23CC4CC(CC(C4)C2)C3)cc1F` [Example 48, (2S)-1-[4-(1-adamantylmethoxy)-5-cyclopropyl-2-fluoro-benzoyl]-4,4-difluoro-pyrrolidine-2-carboxylic acid], the IC50 against human NaV1.7 stood at 0.64 µM; on hNav1.7, 0.04 µM.

With `O=C(O)[C@@H]1C[C@@H](F)CN1C(=O)c1cc(C2CC2)c(OCC23CC4CC(CC(C4)C2)C3)cc1F` [Example 49, (2S,4R)-1-[4-(1-adamantylmethoxy)-5-cyclopropyl-2-fluoro-benzoyl]-4-fluoro-pyrrolidine-2-carboxylic acid], the figures for the IC50 on human NaV1.7 and on hNav1.7 were 0.23 µM and 0.01 µM, respectively.

On to `O=C(O)[C@@H]1CCCN1C(=O)c1cc(C2CC2)c(O[C@H]2CCCN(Cc3ccc(F)cc3Cl)C2)cc1F` [Example 95, (S)-1-(4-(((S)-1-(2-chloro-4-fluorobenzyl)piperidin-3-yl)oxy)-5-cyclopropyl-2-fluorobenzoyl)pyrrolidine-2-carboxylic acid], for which the IC50 was at least 10 µM on hNav1.7 and at least 30 µM on NaV1.5 (setting [1]).

For `C[C@@H](c1cc(Cl)cc(Cl)c1)N1CCC(COc2cc(F)c(C(=O)N3C[C@H](F)C[C@H]3C(=O)O)cc2C2CC2)CC1` [Example 100], on NaV1.5 (read-out: Nav1.5), the IC50 is 18 µM.

Take `C[C@@H]1CC[C@@H](C(=O)O)N1C(=O)c1cc(C2CC2)c(OCC23CC4CC(CC(C4)C2)C3)cc1F` [Example 152, (2S,5R)-1-[4-(1-adamantylmethoxy)-5-cyclopropyl-2-fluoro-benzoyl]-5-methyl-pyrrolidine-2-carboxylic acid]: the IC50 on NaV1.5 (read-out: Nav1.5) came to 13 µM.

As to `C[C@H]1CC[C@@H](C(=O)O)N1C(=O)c1cc(C2CC2)c(OCC23CC4CC(CC(C4)C2)C3)cc1F` [Example 153, (2S,5S)-1-[4-(1-adamantylmethoxy)-5-cyclopropyl-2-fluoro-benzoyl]-5-methyl-pyrrolidine-2-carboxylic acid], on NaV1.5 (read-out: Nav1.5), the IC50 came out at 19 µM.

Take `C[C@@H](c1cc(Cl)cc(Cl)c1)N1CCC(COc2cc(F)c(C(=O)N3C[C@H](F)C[C@H]3C(=O)O)cc2C2CC2)CC1` [Example 158, (2S,4R)-1-[5-cyclopropyl-4-[[1-[(1S)-1-(3,5-dichlorophenyl)ethyl]-4-piperidyl]methoxy]-2-fluoro-benzoyl]-4-fluoro-pyrrolidine-2-carboxylic acid]: the IC50 against NaV1.5 (setting [1]) was at least 30 µM.

Turning to `Nc1noc2ccc(-c3cc(Cl)ccc3Oc3cc(F)c(C(=O)N4CCC[C@H]4C(=O)O)cc3F)cc12` [Example 192, (S)-1-(4-(2-(3-aminobenzo[d]isoxazol-5-yl)-4-chlorophenoxy)-2,5-difluorobenzoyl)pyrrolidine-2-carboxylic acid trifluoroacetate], the IC50 is at least 10 µM at hNav1.7 and at least 30 µM against NaV1.5 (setting [1]).
